The text below walks through data of the supplement of paper PMC10307832.

Common to all, as to assay: relative viability (nuclei count vs DMSO), 5 days (fraction); higher = more cells survive
Compound in one assay: OCc1c[nH]c2ccccc12 [Indole-3-carbinol]
The procedure, abridged: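 Five library-drug doses spaced by √10 were pinned onto vehicle-anchored 1536-well plates of lung cancer cell lines that had been kept overnight at 37 °C. Cells went 5 days without medium change, then were fixed, permeabilised and Hoechst-stained together, imaged at 4× and counted by MetaXpress. Viability is the ratio of treated-well to vehicle-well nuclei, taken as a median over plates. Plates required control CV below 25% and at least one doubling.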

Compound in assay [1]: OCc1c[nH]c2ccccc12 [Indole-3-carbinol] + NC(=O)Nc1cc(-c2cccc(F)c2)sc1C(=O)N[C@H]1CCCNC1 [AZD7762] (partner 0.2 µM)
The gist of the method: (§1)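 Values are medians from duplicate plates. Each reflects relative viability, defined as the nuclei count of treated wells over that of vehicle wells. Lung cancer cell lines in 1536-well plates were pin-tool dosed one day after seeding with one drug alone or with a fixed anchor-drug dose plus five library-drug doses (not always all listed) in √10 steps, then fixed, stained and imaged at 4× after 5 days.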

Compound in assay [2]: OCc1c[nH]c2ccccc12 [Indole-3-carbinol] + CC(=O)Nc1cccc(-n2c(=O)n(C3CC3)c(=O)c3c(Nc4ccc(I)cc4F)n(C)c(=O)c(C)c32)c1 [Trametinib] (partner 0.02 µM)
The procedure, abridged: as §1

Compound in assay [3]: OCc1c[nH]c2ccccc12 [Indole-3-carbinol] + CS(=O)(=O)CCNCc1ccc(-c2ccc3ncnc(Nc4ccc(OCc5cccc(F)c5)c(Cl)c4)c3c2)o1 [Lapatinib] (partner 2 µM)
The gist of the method:
as §1

Compound in assay [4]: OCc1c[nH]c2ccccc12 [Indole-3-carbinol] + O=C(CCCCCCC(=O)Nc1ccccc1)NO [Vorinostat] (partner 1 µM)
The gist of the method: as §1

On to RERF-LC-KJ, for which the relative viability with Indole-3-carbinol (0.253 µM) came out at 1.01; with Indole-3-carbinol (0.8 µM), 0.999; with Indole-3-carbinol (2.53 µM), 0.947; with Indole-3-carbinol (8 µM), 0.92; in assay [1] (first compound 0.253 µM), 1.07; in assay [1] (first compound 0.8 µM) it was 1.01. The relative viability in assay [1] (first compound 2.53 µM) came out at 0.962; in assay [1] (first compound 8 µM), 0.885; in assay [2] (first compound 0.253 µM), 0.812; in assay [2] (first compound 0.8 µM) it was 0.904; in assay [2] (first compound 2.53 µM), 0.943; in assay [2] (first compound 8 µM) it was 0.825. The relative viability turned out to be 0.866 in assay [3] (first compound 0.253 µM); 0.891 in assay [3] (first compound 0.8 µM); 0.802 in assay [3] (first compound 2.53 µM); 0.787 in assay [3] (first compound 8 µM); 0.687 in assay [4] (first compound 0.253 µM); 0.622 in assay [4] (first compound 0.8 µM). Moreover, the relative viability was 0.656 in assay [4] (first compound 2.53 µM) and 0.726 in assay [4] (first compound 8 µM).

Consider HCC-44, for which the relative viability with Indole-3-carbinol (0.253 µM) is 0.983; with Indole-3-carbinol (0.8 µM) it was 0.972; with Indole-3-carbinol (2.53 µM), 0.954; with Indole-3-carbinol (8 µM) it was 0.96; in assay [1] (first compound 0.253 µM), 1.03; in assay [1] (first compound 0.8 µM), 1.03. The relative viability stood at 1 in assay [1] (first compound 2.53 µM); 0.967 in assay [1] (first compound 8 µM); 1.05 in assay [2] (first compound 0.253 µM); 1.13 in assay [2] (first compound 0.8 µM); 1.09 in assay [2] (first compound 2.53 µM); 1.04 in assay [2] (first compound 8 µM). Further, the relative viability in assay [3] (first compound 0.253 µM) came to 1.02; in assay [3] (first compound 0.8 µM), 1.04; in assay [3] (first compound 2.53 µM), 0.973; in assay [3] (first compound 8 µM) it was 0.988; in assay [4] (first compound 0.253 µM) it was 1.15; in assay [4] (first compound 0.8 µM), 1.16. Besides, the figures for the relative viability in assay [4] (first compound 2.53 µM) and in assay [4] (first compound 8 µM) were 1.12 and 1.03, respectively.

For the cell line EPLC-272H, the relative viability is 1.01 in the assay with Indole-3-carbinol (0.253 µM); 1.15 with Indole-3-carbinol (0.8 µM); 0.9 with Indole-3-carbinol (2.53 µM); 0.906 with Indole-3-carbinol (8 µM); 0.26 in assay [1] (first compound 0.253 µM); 0.236 in assay [1] (first compound 0.8 µM). Further, the relative viability is 0.18 in assay [1] (first compound 2.53 µM); 0.214 in assay [1] (first compound 8 µM); 0.293 in assay [2] (first compound 0.253 µM); 0.268 in assay [2] (first compound 0.8 µM); 0.296 in assay [2] (first compound 2.53 µM); 0.275 in assay [2] (first compound 8 µM). Also, the relative viability came out at 1.3 in assay [3] (first compound 0.253 µM); 0.851 in assay [3] (first compound 0.8 µM); 1.04 in assay [3] (first compound 2.53 µM); 0.716 in assay [3] (first compound 8 µM); 0.265 in assay [4] (first compound 0.253 µM); 0.534 in assay [4] (first compound 0.8 µM). In addition, the relative viability worked out at 0.409 in assay [4] (first compound 2.53 µM) and 0.523 in assay [4] (first compound 8 µM).

Regarding NCI-H358, the relative viability stood at 0.947 in the assay with Indole-3-carbinol (0.253 µM); 0.916 with Indole-3-carbinol (0.8 µM); 0.917 in the assay with Indole-3-carbinol (2.53 µM); 0.94 with Indole-3-carbinol (8 µM); 0.56 in assay [1] (first compound 0.253 µM); 0.489 in assay [1] (first compound 0.8 µM). For the same cell line, the relative viability is 0.591 in assay [1] (first compound 2.53 µM); 0.507 in assay [1] (first compound 8 µM); 0.119 in assay [2] (first compound 0.253 µM); 0.122 in assay [2] (first compound 0.8 µM); 0.139 in assay [2] (first compound 2.53 µM); 0.121 in assay [2] (first compound 8 µM). Further, the relative viability in assay [3] (first compound 0.253 µM) amounted to 0.519; in assay [3] (first compound 0.8 µM) it was 0.422; in assay [3] (first compound 2.53 µM), 0.42; in assay [3] (first compound 8 µM), 0.423; in assay [4] (first compound 0.253 µM), 0.763; in assay [4] (first compound 0.8 µM), 0.752. The figures for the relative viability in assay [4] (first compound 2.53 µM) and in assay [4] (first compound 8 µM) were 0.684 and 0.624, respectively.

On to NCI-H596, for which the relative viability was 1.07 with Indole-3-carbinol (0.253 µM); 0.948 with Indole-3-carbinol (0.8 µM); 0.967 with Indole-3-carbinol (2.53 µM); 1 with Indole-3-carbinol (8 µM); 1.06 in assay [1] (first compound 0.253 µM); 1.07 in assay [1] (first compound 0.8 µM). For the same cell line, the relative viability in assay [1] (first compound 2.53 µM) is 1.11; in assay [1] (first compound 8 µM), 1.06; in assay [2] (first compound 0.253 µM), 0.779; in assay [2] (first compound 0.8 µM) it was 0.829; in assay [2] (first compound 2.53 µM) it was 0.809; in assay [2] (first compound 8 µM), 0.762. The relative viability in assay [3] (first compound 0.253 µM) turned out to be 1.05; in assay [3] (first compound 0.8 µM), 0.779; in assay [3] (first compound 2.53 µM) it was 0.936; in assay [3] (first compound 8 µM), 0.985; in assay [4] (first compound 0.253 µM), 0.552; in assay [4] (first compound 0.8 µM) it was 0.522. In addition, the relative viability in assay [4] (first compound 2.53 µM) was determined as 0.565; in assay [4] (first compound 8 µM) it was 0.675.

Consider NCI-H322M, for which the relative viability with Indole-3-carbinol (0.253 µM) worked out at 0.84; with Indole-3-carbinol (0.8 µM) it was 0.973; in the assay with Indole-3-carbinol (2.53 µM) it was 0.859; with Indole-3-carbinol (8 µM) it was 0.866; in assay [1] (first compound 0.253 µM), 0.607; in assay [1] (first compound 0.8 µM) it was 0.596. Besides, the relative viability in assay [1] (first compound 2.53 µM) turned out to be 0.514; in assay [1] (first compound 8 µM), 0.613; in assay [2] (first compound 0.253 µM), 0.517; in assay [2] (first compound 0.8 µM), 0.411; in assay [2] (first compound 2.53 µM) it was 0.496; in assay [2] (first compound 8 µM), 0.451. Moreover, the relative viability came to 0.601 in assay [3] (first compound 0.253 µM); 0.537 in assay [3] (first compound 0.8 µM); 0.575 in assay [3] (first compound 2.53 µM); 0.549 in assay [3] (first compound 8 µM); 0.713 in assay [4] (first compound 0.253 µM); 0.8 in assay [4] (first compound 0.8 µM). The relative viability came to 0.902 in assay [4] (first compound 2.53 µM) and 0.779 in assay [4] (first compound 8 µM).
